These results are taken from patent US12509451B2, “Heteroaryl amide inhibitors of CD38” (NAPA THERAPEUTICS LTD., priority 2020, dated 2025).

The target of assay [1] is T1, CD38 NAD+ hydrolase activity in NH7-dCas9 cells (Jurkat clone) (Homo sapiens, UniProt P28907).
T1 construct: The assay utilized CD38 expressing NH7-dCas9 cells (Jurkat clone); host or cells: NH7-dCas9 cells (Jurkat clone)
T1 sequence (P28907 1-300): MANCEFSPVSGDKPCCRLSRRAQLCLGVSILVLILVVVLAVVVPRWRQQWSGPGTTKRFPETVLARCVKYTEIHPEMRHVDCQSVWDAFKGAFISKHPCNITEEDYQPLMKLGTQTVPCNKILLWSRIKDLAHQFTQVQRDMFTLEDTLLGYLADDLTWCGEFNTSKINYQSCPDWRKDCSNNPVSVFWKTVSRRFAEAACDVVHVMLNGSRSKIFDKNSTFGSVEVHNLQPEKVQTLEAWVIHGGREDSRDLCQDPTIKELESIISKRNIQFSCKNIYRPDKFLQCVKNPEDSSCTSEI
Briefly: Fluorescence-based NAD+ hydrolase activity assay with human T cell line NH7-dCas9 cells-Jurkat clone (Assay 1). The settings on record: read-out: Assay 1 Arithmetic mean IC50. The method, then:
For the modified assay, the performance validation criteria of the assay as a High Throughput Screening (HTS): Z-factor within the plate was greater than 0.89 (optimal HTS z-factor >0.5) and the Intra-plate, inter-plate and day to day variability (CV) was less than 20%.
NAD+ hydrolase activity of a human T cell line treated with test compounds was measured using a fluorescence-based assay. NH7-dCas9 cells (Jurkat clone) were provided by the Weissman Lab (UCSF 1700 4th St., Byers Hall, Room 403B, San Francisco, CA 94158-2330). Briefly, cells were centrifuged, resuspended in 44 μl PBS/10^6 cells and plated in a 96 well black plate (CORNING) at a density of 1×10^6 per well.
(§1) Each test compound was received in a powder state and dissolved in DMSO as a 25 mM stock solution. Each test compound was serially diluted in order to generate a dose-response curve. The dilution series of each test compound in DMSO was prepared at 50 times the concentrations to be assayed. Each test compound was diluted to generate a 5-fold dilution series of 8 concentrations from 20 μM to 0.256 nM in order to assay 8 final concentrations ranging from 400 nM to 25.6 pM. One μl of the 50× concentration compound series was added to each well of the plate containing 1×10^6 cells in PBS.
Each plate had the following intra plate controls: 3 wells containing cells treated with vehicle only (DMSO), 3 wells of cells treated with the reference compound 78c at a final concentration of 50 nM and 2 wells containing only PBS (used as a background value).
(§2) The reaction was started by adding nicotinamide 1,N^6-etheno-adenine dinucleotide (Sigma Aldrich) to reach a final concentration of 80 µM. The samples were excited at 321-15 nm, and the emission of fluorescence was measured at 410-20 nm at 37° C. every minute for 1 hr in a Clariostar® microplate reader (BMG LABTECH). NAD+ hydrolase activity was calculated as the slope of the linear portion of the fluorescence-time curve using the MARS data analysis software (BMG LABTECH). The data were uploaded in the Collaborative Drug Design (CDD) Software and for each compound the IC50 was calculated by the software. Each compound was tested in 3 independent experiments on 3 separate days to establish the reproducibility of the results. For each plate, the z-factor was also calculated as a plate quality using the CDD software.

Assay [2] deals with T2, recombinant human CD38 Protein (Homo sapiens, UniProt P28907).
T2 construct: purchased R&D System
T2 sequence (P28907 1-300): T1 sequence (P28907 1-300)
Briefly: Fluorescence-based NAD+ cyclase activity assay with human recombinant CD38 protein (Assay 2). It counts as biochemical. The following applies: read-out: Assay 2 Arithmetic mean IC50. The method, then: This protocol was modified from the de Oliveira et al., 2018 reference, supra.
NAD+ cyclase activity of the human recombinant CD38 protein treated with test compounds was measured using a fluorescence-based assay. Briefly, recombinant human CD38 Protein (R&D System) was resuspended in 44 μl/well of Sucrose-Tris Buffer (Sucrose 0.25 M, Tris pH 7.4 40 mM) and plated in a 96-well black plate (CORNING) at a density of 125 ng/well.
as §1, with “100” for “20”, “32” for “0.256”, “2 μM” for “400 nM”, “0.64 nM.” for “25.6 pM.”, “125 ng of protein” for “1×10^6 cells”, “Sucrose-Tris buffer.” for “PBS.”
The reaction was started adding nicotinamide guanine dinucleotide (NGD+) (Sigma Aldrich) to reach a final concentration of 150 µM. The samples were excited at 337-15 nm, and the emission of fluorescence was measured at 442-20 nm at 37° C. every minute for 1 hr in a Clariostar microplate reader (BMG LABTECH). NAD+ cyclase activity was calculated as the slope of the linear portion of the fluorescence-time curve using the MARS data analysis software (BMG LABTECH). The data were uploaded in the Collaborative Drug Design (CDD) Software, and for each compound the IC50 was calculated by the software. For each plate, the z-factor was also calculated as a plate quality using the CDD software.

For assay [3], the target named is T2, recombinant human CD38 Protein. Briefly: Fluorescence-based NAD+ hydrolase activity assay with human recombinant CD38 protein (Assay 3). It counts as biochemical. The settings on record: read-out: Assay 3 Arithmetic mean IC50. The method, then:
This protocol was modified from the following references (Muller et al. (1983); (Schultz et al. (2018); (Matalonga et al. (2017); and de Oliveira et al. (2018), supra.
NAD+ hydrolase activity of the human recombinant CD38 protein treated with test compounds was measured using a fluorescence-based assay. Briefly, recombinant human CD38 Protein (R&D System) was resuspended in 44 μl/well of Sucrose-Tris Buffer (Sucrose 0.25 M, Tris pH 7.4 40 mM) and plated in a 96-well black plate (CORNING) at a density of 10 ng/well.
Each test compound was received in a powder state and dissolved in DMSO as a 25 mM stock solution. Each test compound was serially diluted in order to generate a dose-response curve. The dilution series of each test compound in DMSO was prepared at 50× the concentrations to be assayed. Each test compound was diluted to generate a 5-fold dilution series of 8 concentrations from 20 μM to 0.256 nM in order to assay 8 final concentrations ranging from ranging from 400 nM to 25.6 pM. One μl of the 50× concentration compound series was added to each well of the plate containing 10 ng protein in Sucrose-Tris buffer.
as §2, with “started” for “started by”, “nm” for “nm,”, “Each compound was tested in 3 independent experiments on 3 separate days to establish the reproducibility of the results.” left out

Assay [4] has as its target T3, recombinant mouse CD38 Protein (Mus musculus, UniProt P56528).
T3 construct: purchased R&D System
T3 sequence (P56528 1-304): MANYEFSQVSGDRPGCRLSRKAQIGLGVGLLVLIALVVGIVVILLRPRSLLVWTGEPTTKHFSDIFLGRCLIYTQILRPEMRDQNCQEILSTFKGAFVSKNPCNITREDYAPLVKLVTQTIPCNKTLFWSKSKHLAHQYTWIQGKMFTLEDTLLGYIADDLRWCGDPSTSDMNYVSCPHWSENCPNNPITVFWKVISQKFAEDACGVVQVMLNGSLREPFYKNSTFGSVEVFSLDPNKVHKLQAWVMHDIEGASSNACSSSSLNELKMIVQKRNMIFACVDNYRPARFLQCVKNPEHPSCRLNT
Put plainly: Fluorescence-based NAD+ cyclase activity assay with mouse recombinant CD38 protein (Assay 4). The settings on record: read-out: Assay 4 Arithmetic mean IC50. It counts as biochemical. The method, then: This protocol was modified from de Oliveira et al. (2018) supra.
NAD+ cyclase activity of the […] recombinant CD38 protein treated with test compounds was measured using a fluorescence-based assay. Briefly, recombinant mouse CD38 Protein (R&D System) was resuspended in 44 μl/well of Sucrose-Tris Buffer (Sucrose 0.25 M, Tris pH 7.4 40 mM) and plated in a 96-well black plate (CORNING) at a density of 32 ng/well.
Each test compound was received in a powder state and dissolved in DMSO as a 25 mM stock solution. Each test compound was serially diluted in order to generate a dose-response curve. The dilution series of each test compound in DMSO was prepared at 50 times the concentrations to be assayed. Each test compound was diluted to generate a 5-fold dilution series of 8 concentrations from 100 μM to 32 nM in order to assay 8 final concentrations ranging from 2 μM to 0.64 nM. One μl of the 50× concentration compound series was added to each well of the plate containing 125 ng of protein in Sucrose-Tris buffer.
Each plate had the following intra plate controls: 3 wells containing cells treated with vehicle only (DMSO), 3 wells of cells treated with the reference compounds 78c at a final concentration of 500 nM and 2 wells containing only Sucrose-Tris buffer (used as a background value).
The reaction was started adding nicotinamide guanine dinucleotide (NGD+) (Sigma Aldrich) to reach a final concentration of 150 µM. The samples were excited at 337-15 nm and the emission of fluorescence was measured at 442-20 nm at 37° C. every minute for 1 hr in a Clariostar® microplate reader (BMG LABTECH). NAD+ cyclase activity was calculated as the slope of the linear portion of the fluorescence-time curve using the MARS data analysis software (BMG LABTECH). The data were uploaded in the Collaborative Drug Design (CDD) Software and for each compound the IC50 was calculated by the software. Each compound was tested in 3 independent experiments on 3 separate days to establish the reproducibility of the results. For each plate, the z-factor was also calculated as a plate quality using the CDD software.

Assay [5] concerns the target T3, recombinant mouse CD38 Protein. Briefly: Fluorescence-based NAD+ hydrolase activity assay with mouse recombinant CD38 protein (Assay 5). It counts as biochemical. The settings on record: read-out: Assay 5 Arithmetic mean IC50. The method, then: This protocol was modified from the following references: Muller et al. (1983); Schultz et al. (2018); Matalonga et al. (2017); and de Oliveira et al. (2018), supra.
NAD+ hydrolase activity of the mouse recombinant CD38 protein treated with test compounds was measured using a fluorescence-based assay. Briefly, recombinant mouse CD38 Protein (R&D System) was resuspended in 44 μl/well of Sucrose-Tris Buffer (Sucrose 0.25 M, Tris pH 7.4 40 mM) and plated in a 96 well black plate (CORNING) at a density of 2.5 ng/well.
Each test compound was received in a powder state and dissolved in DMSO as a 25 mM stock solution. Each test compound was serially diluted in order to generate a dose-response curve. The dilution series of each test compound in DMSO was prepared at 50 times the concentrations to be assayed. Each test compound was diluted to generate a 5-fold dilution series of 8 concentrations from 20 μM to 0.256 nM in order to assay 8 final concentrations ranging from 400 nM to 25.6 pM. One μl of the 50× concentration compound series was added to each well of the plate containing 2.5 ng of protein in Sucrose-Tris buffer.
Each plate had the following intra plate controls: 3 wells containing cells treated with vehicle only (DMSO), 3 wells of cells treated with the reference compounds 78c at a final concentration of 50 nM and 2 wells containing only Sucrose-Tris buffer (used as a background value).
as §2, with “started” for “started by”, “nm” for “nm,”, “Clariostar Microplate®” for “Clariostar® microplate”

Where only a bound is given, the exact number is not on record here.

`O=C(Nc1cc(F)nc(F)c1)c1cccc(-n2ccnc2)n1` [Compound 5]: the IC50 is less than 1 nM in assay [1], 51 to 1000 nM in assay [2] and less than 1 nM in assay [3].

Consider `CCOC(=O)c1cc(NC(=O)c2cccc(-n3ccnc3)n2)ccn1` [Compound 6], for which the IC50 in assay [1] was less than 1 nM; in assay [2] it was 51 to 1000 nM; in assay [3], 1 to 50 nM.

With `CC1(Oc2cc(C(=O)Nc3ccnc(C(F)(F)F)c3)nc(-n3ccnc3)n2)COC1` [Compound 41], the IC50 fell in the range of 51 to 1000 nM in assay [4] and 1 to 50 nM in assay [5].

For the compound `O=C(Nc1cccnc1)c1cncc(-n2ccnc2)n1` [Compound 70], the IC50 in assay [1] was less than 1 nM; in assay [2], 1000 to 10000 nM; in assay [3], less than 1 nM.

What is called IC50 is the concentration needed to halve the response being measured.
